According to publication PMC10877733, “Discovery and Characterization of VU0542270, the First Selective Inhibitor of Vascular Kir6.1/SUR2B KATP Channels” (Molecular Pharmacology, 2024):

Tests used:
[1] = target: T1, Kir3.1/Kir3.2 (Homo sapiens, UniProt P48051+P48549); test: Thallium flux selectivity assay Kir3.1/Kir3.2; format: cell-based
T1 construct: expressed in transfected cells
T1 sequence (P48549 1-501): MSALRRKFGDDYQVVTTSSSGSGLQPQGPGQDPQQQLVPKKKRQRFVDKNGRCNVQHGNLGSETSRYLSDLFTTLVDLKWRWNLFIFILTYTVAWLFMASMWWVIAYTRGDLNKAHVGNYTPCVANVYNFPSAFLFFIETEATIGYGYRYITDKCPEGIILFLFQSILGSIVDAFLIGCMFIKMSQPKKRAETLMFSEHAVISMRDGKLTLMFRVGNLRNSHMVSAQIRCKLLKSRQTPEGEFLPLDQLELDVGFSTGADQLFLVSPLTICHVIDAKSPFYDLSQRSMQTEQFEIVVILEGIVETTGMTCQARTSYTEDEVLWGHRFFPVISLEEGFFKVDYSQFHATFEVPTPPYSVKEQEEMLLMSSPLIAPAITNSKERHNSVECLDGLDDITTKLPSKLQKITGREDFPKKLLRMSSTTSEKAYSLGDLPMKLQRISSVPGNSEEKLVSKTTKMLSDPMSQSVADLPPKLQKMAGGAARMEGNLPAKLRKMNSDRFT
T1 sequence (P48051 1-423): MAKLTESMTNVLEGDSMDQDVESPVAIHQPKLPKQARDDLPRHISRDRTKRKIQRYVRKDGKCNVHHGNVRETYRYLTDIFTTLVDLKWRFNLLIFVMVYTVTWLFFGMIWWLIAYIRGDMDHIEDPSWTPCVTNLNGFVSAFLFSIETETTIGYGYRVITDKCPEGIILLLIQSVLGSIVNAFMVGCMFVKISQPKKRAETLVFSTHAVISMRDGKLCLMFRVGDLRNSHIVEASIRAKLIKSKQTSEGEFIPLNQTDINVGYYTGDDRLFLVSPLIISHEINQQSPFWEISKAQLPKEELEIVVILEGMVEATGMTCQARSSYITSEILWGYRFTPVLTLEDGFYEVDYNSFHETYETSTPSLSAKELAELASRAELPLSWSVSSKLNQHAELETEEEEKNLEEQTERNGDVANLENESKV
Method: (§1) Quantitative thallium flux assays of Kir6.1/SUR2B activity were performed essentially as described previously for Kir6.2/SUR1 ([Raphemot et al., 2014]; [Kharade et al., 2019]). Stable T-Rex-HEK293-Kir6.1/SUR2B cells or transiently transfected HEK293T cells were plated in polyamine-coated, clear-bottomed, black-walled 384-well plates and were cultured (37°C/5% CO2) overnight in Dulbecco’s modified Eagle’s medium (Gibco, Carlsbad, CA, 11995-065) containing 10% FBS (2 mM Penicillin-Streptomycin). The following day, cells were washed with assay buffer (i.e., Hanks’ balanced salt solution/20 mM HEPES) and loaded for 1 hour with thallium sensor dye Brilliant Thallium (Ion Bioscience, San Marcos, TX) at room temperature. Dye-loaded cells were washed with assay buffer and transferred to a Panoptic Kinetic Imaging Plate Reader (Wavefront Bioscience, Franklin, TN). Control and test compound treatments were for 4 minutes prior to adding 0.5 mM chloride-free thallium stimulus buffer (Ion Bioscience) to initiate thallium flux. […] Selectivity assays against other Kir channels were performed essentially as described previously ([Kharade et al., 2018]; [McClenahan et al., 2022]).

[2] = target: T2, Kir4.1/Kir5.1 (Homo sapiens, UniProt P78508+Q9NPI9); test: Thallium flux selectivity assay Kir4.1/Kir5.1; format: cell-based
T2 construct: expressed in transfected cells
T2 sequence (P78508 1-379): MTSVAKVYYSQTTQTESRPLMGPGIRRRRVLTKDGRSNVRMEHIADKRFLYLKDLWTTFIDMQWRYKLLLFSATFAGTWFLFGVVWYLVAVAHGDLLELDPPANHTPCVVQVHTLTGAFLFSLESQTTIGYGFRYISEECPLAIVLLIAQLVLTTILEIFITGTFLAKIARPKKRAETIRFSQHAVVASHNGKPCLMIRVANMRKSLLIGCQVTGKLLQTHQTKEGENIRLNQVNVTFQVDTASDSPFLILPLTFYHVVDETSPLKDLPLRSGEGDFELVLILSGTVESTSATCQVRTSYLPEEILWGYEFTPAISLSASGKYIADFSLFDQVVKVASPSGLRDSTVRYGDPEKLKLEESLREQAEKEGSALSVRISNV
T2 sequence (Q9NPI9 1-418): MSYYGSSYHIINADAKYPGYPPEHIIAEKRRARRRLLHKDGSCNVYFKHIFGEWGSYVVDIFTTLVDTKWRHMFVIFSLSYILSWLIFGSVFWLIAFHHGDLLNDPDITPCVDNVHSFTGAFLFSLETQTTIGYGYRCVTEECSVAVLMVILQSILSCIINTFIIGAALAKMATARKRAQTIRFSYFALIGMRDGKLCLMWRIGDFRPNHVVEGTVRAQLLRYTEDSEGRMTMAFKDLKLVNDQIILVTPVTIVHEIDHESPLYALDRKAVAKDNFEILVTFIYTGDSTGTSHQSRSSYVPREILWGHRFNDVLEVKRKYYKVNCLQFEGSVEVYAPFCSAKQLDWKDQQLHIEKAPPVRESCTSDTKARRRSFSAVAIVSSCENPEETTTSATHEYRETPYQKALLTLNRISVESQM
Method: as §1

- IC50 [1]: > 30 µM
- IC50 [2]: > 30 µM
SMILES: Cc1nc(-c2cccs2)sc1CNC(=O)Nc1cccs1 [VU0542270]
